Measured values reported in patent US12209102B2, “Heterocyclic compounds and uses thereof” (Kumquat Biosciences Inc., priority 2022, dated 2025).

Columns and labels:
K-Ras G12D = molecular target: T1, K-Ras G12D (Homo sapiens, UniProt P01116, G12D); assay: HTRF resonance energy transfer assay, K-Ras G12D / SOS1 interaction; assay type: biochemical; conditions: HTRF assay of Example 5; read-out: IC50 against K-Ras G12D
T1 construct: made in house; host or cells: E. coli BL21 (DE3)
Procedure, shortened: (§1)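 Buffer about 5 mM HEPES pH 7.4 with ~150 mM NaCl, ~1 mM DTT, 0.05% BSA, 0.0025% (v/v) Igepal. Protein constructs used at molarity matching the IC50 range studied (e.g. ~500 nM). FRET between tagged K-Ras and hSOS1 measured after short incubation.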

K-Ras G12S = molecular target: T2, K-Ras G12S (Homo sapiens, UniProt P01116, G12S); assay: HTRF resonance energy transfer assay, K-Ras G12S / SOS1 interaction; assay type: biochemical; conditions: HTRF assay of Example 5; read-out: IC50 against K-Ras G12S
T2 construct: made in house; host or cells: E. coli BL21 (DE3)
T2 sequence (P01116 1-188 isoform P01116-2 G12S): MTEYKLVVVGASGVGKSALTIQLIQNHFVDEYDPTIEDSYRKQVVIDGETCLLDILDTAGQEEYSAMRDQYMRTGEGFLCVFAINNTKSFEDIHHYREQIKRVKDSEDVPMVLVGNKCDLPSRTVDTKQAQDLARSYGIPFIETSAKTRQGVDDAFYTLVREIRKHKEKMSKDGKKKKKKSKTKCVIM
Procedure, shortened: as §1

K-Ras G12V = molecular target: T3, K-Ras G12V (Homo sapiens, UniProt P01116, G12V); assay: HTRF resonance energy transfer assay, K-Ras G12V / SOS1 interaction; assay type: biochemical; conditions: HTRF assay of Example 5; read-out: IC50 against K-Ras G12V
T3 construct: made in house; host or cells: E. coli BL21 (DE3)
T3 sequence (P01116 1-188 isoform P01116-2 G12V): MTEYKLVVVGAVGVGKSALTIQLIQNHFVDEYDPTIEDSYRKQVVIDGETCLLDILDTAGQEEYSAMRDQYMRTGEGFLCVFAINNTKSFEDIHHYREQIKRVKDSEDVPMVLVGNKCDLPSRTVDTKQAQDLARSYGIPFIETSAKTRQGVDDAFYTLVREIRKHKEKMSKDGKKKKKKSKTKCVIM
Procedure, shortened: as §1

K-Ras WT = molecular target: T4, K-Ras WT (Homo sapiens, UniProt P01116); assay: HTRF resonance energy transfer assay, K-Ras WT / SOS1 interaction; assay type: biochemical; conditions: HTRF assay of Example 5; read-out: IC50 against K-Ras WT
T4 construct: made in house; host or cells: E. coli BL21 (DE3)
T4 sequence (P01116 1-188 isoform P01116-2): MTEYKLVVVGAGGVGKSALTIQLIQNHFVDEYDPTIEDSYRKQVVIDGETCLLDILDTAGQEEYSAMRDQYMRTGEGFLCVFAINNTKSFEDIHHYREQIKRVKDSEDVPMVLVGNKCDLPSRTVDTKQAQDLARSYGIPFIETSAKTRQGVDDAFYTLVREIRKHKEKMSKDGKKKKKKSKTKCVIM
Procedure, shortened: as §1

GP2D cells = assay: Ras cellular assay, growth of cells with K-Ras G12D mutation (CellTiter-Glo); assay type: cell-based; conditions: cell growth, Example 9, G12D mutation, read-out: IC50 against GP2D cells
A549 cells = assay: Ras cellular assay, growth of cells with K-Ras G12S mutation (CellTiter-Glo); assay type: cell-based; conditions: Homo sapiens, cell growth, Example 9, G12S mutation, read-out: IC50 against A549 cells
Procedure, shortened: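 Growth inhibition IC50 values come from four-parameter fits of CellTiter-Glo luminescence, read about 6 days after compound addition. G12S-mutant A549 cells (e.g. 800/well, RPMI-1640 + 10% heat-inactivated FBS) were plated in tissue-culture-treated or ultra-low-attachment 384-well format. Dosing began the following day with serial dilutions, e.g. 10 points, 3-fold.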

SW620 cells = assay: Ras cellular assay, growth of cells with K-Ras G12V mutation (CellTiter-Glo); assay type: cell-based; conditions: Homo sapiens, SW-620; cell growth, Example 9, G12V mutation; read-out: IC50 against SW620 cells
Procedure, shortened: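 IC50 values came from a four-parameter fit of CellTiter-Glo viability, read roughly 6 days after dosing with e.g. a 10-point threefold dilution series. G12V-mutant SW620 cells (e.g. 800 per well) had been plated the previous day in RPMI-1640/10% heat-inactivated FBS, on tissue culture-treated or ultra-low attachment plates.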

T1 sequence (P01116 1-188 isoform P01116-2 G12D): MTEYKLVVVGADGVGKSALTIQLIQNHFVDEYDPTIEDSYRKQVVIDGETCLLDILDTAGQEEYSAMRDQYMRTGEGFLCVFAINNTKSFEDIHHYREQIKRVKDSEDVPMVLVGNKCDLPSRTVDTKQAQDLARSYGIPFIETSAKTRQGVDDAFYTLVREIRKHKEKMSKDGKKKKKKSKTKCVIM

| SMILES | IC50 (K-Ras G12D) [nM] | IC50 (K-Ras G12S) [nM] | IC50 (K-Ras G12V) [nM] | IC50 (K-Ras WT) [nM] | IC50 (GP2D cells) [nM] | IC50 (A549 cells) [nM] | IC50 (SW620 cells) [nM] |
| --- | --- | --- | --- | --- | --- | --- | --- |
| N#Cc1c(N)sc2c(F)ccc(-c3c(Cl)c4c5c(nc(OC[C@@]67CCCN6C[C@H](F)C7)nc5c3F)N(C3CCC5(C3)CN(C(=O)CC3COC3)C5)CCO4)c12 (stereo partly drawn) [Compound 1115, 2-amino-4-(8-chloro-10-fluoro-2-(((2R,7aS)-2-fluorotetrahydro-1H-pyrrolizin-7a(5H)-yl)methoxy)-4-(2-(2-(oxetan-3-yl)acetyl)-2-azaspiro[3.4]octan-6-yl)-5,6-dihydro-4H-[1,4]oxazepino[5,6,7-de]quinazolin-9-yl)-7-fluorobenzo[b]thiophene-3-carbonitrile] | < 100 | < 100 | < 100 | < 100 | < 500 | < 5000 | < 5000 |
| CN(C=O)C1CC(N2CCOc3c(Cl)c(-c4ccc(F)c5sc(N)c(C#N)c45)c(F)c4nc(OC[C@@]56CCCN5C[C@H](F)C6)nc2c34)C1 (stereo partly drawn) [Compound 1119, N-(3-(9-(2-amino-3-cyano-7-fluorobenzo[b]thiophen-4-yl)-8-chloro-10-fluoro-2-(((2R,7aS)-2-fluorotetrahydro-1H-pyrrolizin-7a(5H)-yl)methoxy)-5,6-dihydro-4H-[1,4]oxazepino[5,6,7-de]quinazolin-4-yl)cyclobutyl)-N-methylformamide] | < 100 | < 100 | < 100 | < 100 | < 500 | < 5000 | < 5000 |
| N#Cc1c(N)sc2c(F)ccc(-c3c(Cl)c4c5c(nc(OC[C@@]67CCCN6C[C@H](F)C7)nc5c3F)N(C3CCN(C(=O)CC5COC5)C3)CCO4)c12 (stereo partly drawn) [Compound 1126, 2-amino-4-(8-chloro-10-fluoro-2-(((2R,7aS)-2-fluorotetrahydro-1H-pyrrolizin-7a(5H)-yl)methoxy)-4-(1-(2-(oxetan-3-yl)acetyl)pyrrolidin-3-yl)-5,6-dihydro-4H-[1,4]oxazepino[5,6,7-de]quinazolin-9-yl)-7-fluorobenzo[b]thiophene-3-carbonitrile] | < 100 | < 100 | < 100 | < 100 | < 500 | < 5000 | < 5000 |
| CN(CCN1CCOc2c(Cl)c(-c3ccc(F)c4sc(N)c(C#N)c34)c(F)c3nc(OC[C@@]45CCCN4C[C@H](F)C5)nc1c23)C(=O)C(F)F [Compound 1127, N-(2-(9-(2-amino-3-cyano-7-fluorobenzo[b]thiophen-4-yl)-8-chloro-10-fluoro-2-(((2R,7aS)-2-fluorotetrahydro-1H-pyrrolizin-7a(5H)-yl)methoxy)-5,6-dihydro-4H-[1,4]oxazepino[5,6,7-de]quinazolin-4-yl)ethyl)-2,2-difluoro-N-methylacetamide] | < 100 | < 100 | < 100 | < 100 | < 500 | < 5000 | < 5000 |
| C[C@@H]1CN(CC(F)F)c2nc(OC[C@@]34CCCN3C[C@H](F)C4)nc3c(F)c(-c4ccc(F)c5sc(N)c(C#N)c45)c(Cl)c(c23)O1 [Compound 1133, 2-amino-4-((6R)-8-chloro-4-(2,2-difluoroethyl)-10-fluoro-2-(((2R,7aS)-2-fluorotetrahydro-1H-pyrrolizin-7a(5H)-yl)methoxy)-6-methyl-5,6-dihydro-4H-[1,4]oxazepino[5,6,7-de]quinazolin-9-yl)-7-fluorobenzo[b]thiophene-3-carbonitrile] | < 100 | < 100 | < 100 | < 100 | < 500 | < 5000 | < 5000 |
